Assay results: patent publication US8129425B2, “Small organic molecule regulators of cell proliferation” (Curis, Inc., priority 2000, dated 2012)

Key:
[1] = system: patched (ptc-lacZ β-galactosidase reporter); assay: Ptc-lacZ reporter mice assay (X-gal staining of tissues); type: in vivo; conditions: agonist 15 mg/kg/injection 4X/day + dipal-Shh 1 mg/kg/injection 2X/day, four days from first day after birth
Description: Mice with a β-galactosidase transgene (ptc-lacZ mice) under the regulatory control of the patched locus express the β-galactosidase protein in the same cells where the endogenous mouse patched gene is expressed. The β-galactosidase protein can thus be used as a faithful reporter of the expression of the endogenous patched gene.
Ptc-lacZ mice were divided into four treatment groups and were treated with the following compounds or combinations of compounds for four days, beginning on the first day after birth (dipal-Shh=dipalmitoylated Sonic hedgehog):
The vehicle for the agonist was 10% DMSO in PBS (pH 7.2). The agonist was injected from a 4.67 mM stock dissolved in the vehicle solution.
18 hours following the last injections, the mice were sacrificed and the following tissues were collected: skull, kidney, lung, scapula, skin and heart. All tissues were fixed in 0.2% glutaraldehyde, 5 mM EDTA (pH 8.0), 20 mM MgCl2, 100 mM Na2HPO4 for 30 minutes before staining in 1 mg/ml X-gal, 12.5 mM potassium ferrocyanide, 12.5 mM potassium ferricyanide, 2 mM MgCl2, 0.01% deoxycholate, 0.02% NP-40, and 100 mM Na2HPO4 for 30 hours. Tissues were judged for relative intensity and photographed.
FIG. 42: Ptc-lacZ mice were divided into two treatment groups and were treated with the following compounds for three days, beginning on the first day after birth:
The vehicle for the agonist was 10% DMSO in PBS (pH 7.2). The agonist was injected from a 1.0 mM stock dissolved in the vehicle solution.
Eighteen hours following the last injections, the mice were sacrificed and the forelimbs were collected and processed as described above.
In a third experiment, Ptc-lacZ mice were divided into five treatment groups and were treated with the following compounds for four days, beginning on the first day after birth:
The vehicle for the agonist was 10% DMSO in PBS (pH 7.2). The agonist was injected from stocks of 0.3, 0.1 and 0.03 mM dissolved in the vehicle solution.

Gli-1 = assay: Quantitative RT-PCR (TaqMan) of Gli-1 transcript in C3H 10T1/2 cells; type: cell-based, Murine; conditions: compound concentration 8 μM
Description: (§1) The compounds of FIGS. 32 and 33 were tested for their ability to activate transcription of two well-studied targets of the Hedgehog pathway: the transcription factor Gli-1, and the putative Hedgehog receptor component Ptc-1.
(§2) Murine C3H 10T1/2 cells were seeded at approximately 200,000 cells per well in a 24-well plate in complete medium (10% FBS). After 24 hr, medium was removed and replaced with “starvation” medium (0.5% FBS) containing dilutions of compound or Hh protein. After 16-18 hr, total RNA was prepared using TriZol (Life Technologies, inc.).
(§3) One-microgram aliquots of total RNA were used to prepare random hexamer-primed cDNA with […] Reverse transcriptase (Life Technologies, Inc.).
(§4) To measure the relative levels of Gli-1 and Ptc-1 transcripts, TaqMan assays (PE Biosystems) were performed with an ABI Prism 7700 Sequence Detection System. As an internal control, GAPDH transcript levels were simultaneously measured in each reaction. Data were analyzed using Sequence Detector v 1.6.3 (Perkin Elmer).

[2] = system: ptc-1 (d11) lacZ kidney explants; assay: Kidney branching assay (ptc-1 lacZ kidney explants); type: cell-based, mouse; conditions: 5 μM, 48 hrs
Description: (§5) E13.5 old ptc-1 (d11) lacZ […] were harvested and transgenic embryos identified by lacZ detection using tails. Explants were assembled on 1 μm polycarbonate filters (Costar) placed on top of plastic grids (histology embedding chamber) and placed in standard 12-well tissue culture plates filled with kidney explant culture medium (DMEM based, additives optimized for the culture of mouse […]) for 48 hrs, fixed in lacZ fixative, rinsed and stained for lacZ O/N at 37° C.

[3] = system: hedgehog-responsive Gli-Luc reporter-construct; assay: Gli-Luc hedgehog pathway reporter assay in [10T1/2(s12)] cells; type: cell-based, murine; conditions: Table 1
Description: To measure the hedgehog agonist activity of compounds, we used [10T1/2(s12)] cells containing the hedgehog-responsive Gli-Luc reporter-construct. In each MTP (MicroTiter Plate; 96-well plate), 10,000-20,000 cells were plated per well, in full media (10% FBS). After about 24-48 hr, plates were switched to low-serum media (=0.5%. FBS). Subsequently, a test compound was added at 1-5 μM in the presence or absence of octyl-hedgehog (see below). After another 24 hr, the media from the MTPs was discarded and replaced with luciferase assay-mix, containing lysis-buffer with luciferase substrate. The plates were incubated at RT for about 15-30 min and read in a luminometer.
Plates were incubated for 48 hr before switching to low-serum. Compounds were screened at 1-2 μM in the presence of Hh protein (0.01 μg/ml; EC30=about 30% of max-induced activity).
Plates were incubated for 24 hr before switching to low-serum. Compounds were screened at 5 μM without adding Hh protein.
From Screen A, we identified hits identified in FIGS. 32 and 33. The 1,4-diaminocyclohexane subunit of the compounds of FIG. 32 which include this moiety have the two amino substituents disposed in a trans-relationship, e.g., both substituents equatorial on the cyclohexane subunit. These hits were confirmed in Screen B. The data shown in FIGS. 34a and 34b essentially involved dosing the two compounds in both assays (Gli-Luc & SV-Luc).
The data from the Gli-Luc assay is converted to percent activity where full activity with Hh protein is set at 100% (FIG. 35; Table 1). […] Furthermore, the compounds show a more striking induction in the presence of hedgehog (EC50=0.2-0.3 μM, ECmax=70-90% of max induced activity with Hh protein), indicating a synergy between the compounds and Hh protein, consistent with the compounds serving as agonists for the hedgehog pathway.

[4] = system: cerebellar neuron precursors; assay: Cerebellar neuron precursor proliferation (3H-thymidine incorporation); type: cell-based, rat
Description: In order to test the efficacy of Hedgehog signaling agonists, the ability of the agonists to stimulate the proliferation of cerebellar neuron precursors was determined. Cerebellar granule neuron precursors are known to respond to Hh protein by proliferating. To test the agonists, cerebellar neurons were dissected out of postnatal (one week) rat brains, and placed into primary cell culture. Treatment agents were added once, on the first day of culture (0 DIV). Cells were left in culture until 2 DIV, when 3H-thymidine was added for 5 hours; the amount of incorporation by the cells of this 3H-thymidine provides a measure of the level of proliferation of the cells. Cells were then lysed, and the incorporation of 3H-thymidine was determined. The positive control was Hh protein, at 1.0 μg/ml final concentration. Hh protein alone caused approximately a 20-fold increase in 3H-thymidine incorporation, consistent with the known ability of Shh to stimulate proliferation of these cells. Non-Hh-protein-stimulated cells, including cells treated with control vehicle (DMSO), had very low levels of proliferation. […] At 5.0 μM, the p-cyanophenyl compound B caused 10.2-fold induction of 3H-thymidine incorporation. […] At 1.0, 0.3, or 0.1 μM, D caused 16-, 17-, or 13-fold induction, respectively, of 3H thymidine incorporation into the cells.

ptc-lacZ skin punches = assay: Skin explants from ptc-lacZ pups (X-Gal stain); type: cell-based, mouse; conditions: cultured 6 days
Description: Skin from ptc-lacZ E17.5 pups was excised with a 2 mm skin punch. Those skin punches were then cultured for 6 days in control media, or media including either agonist B or D or Hh protein, or media including both an agonist and Hh protein. The explants were then stained with X-Gal stain.

Ptc-1 = assay: Quantitative RT-PCR (TaqMan) of Ptc-1 transcript in C3H 10T1/2 cells; type: cell-based, Murine; conditions: compound concentration 8 μM
Description: as §1, §2, §3, §4

ptc-1 (d11) lacZ lungs = assay: Lung branching assay (ptc-1 lacZ lung explants); type: cell-based, mouse; conditions: 5 μM, 48 hrs
Description: as §5, with “E12.5” for “E13.5”, “lung” for “kidney”

[5] = system: HEPM cells with a Gli-Luc construct; assay: Gli-Luc reporter in human embryonic palatal mesenchyme (HEPM) cells; type: cell-based
From the text: FIGS. 47A and B compare the activity of subject compounds O and R in mouse reporter cells (TM3 cells with a Gli-Luc reporter construct, as described above) and in human reporter cells (human embryonic palatal mesenchyme (HEPM) cells with a Gli-Luc construct).

[6] = system: nigrostriatal pathway (striatal DA and TH); assay: Mouse MPTP model of Parkinson's disease; type: in vivo; conditions: pretreatment 0.3, 1, 3, and 10 mg/kg po for 3 days before MPTP; seven days post-lesioning, vs vehicle
[7] = system: neural precursor cells (SVZ and SG); assay: Neural precursor cell proliferation (BrdU) after oral administration in adult mouse; type: in vivo; conditions: 7 days BID, 10 mg/kg or 25 mg/kg
Description: To test whether oral administration of the Hh agonist would affect proliferation of precursor cells, mice were dosed daily (once or twice/day, po) with either vehicle or the Hh agonist X″ for 1-7 days. On the appropriate day, mice were injected with BrdU (ip) and 2 hours later euthanized, perfused with fixative and brains processed for BrdU immunohistochemistry. The number of BrdU-IR cells was counted in both the SVZ and subgranular zone of the hippocampal dentate gyrus (SG).
The data shown in FIGS. 57 and 58 are from a study in which mice were dosed orally for 7 days (BID) with either vehicle (n=4) or Hh agonist X″ (10 mg/kg, n=3 or 25 mg/kg, n=3). The day after the final dose, mice were injected with BrdU and 2 hrs. later brains were collected, processed, and analyzed as described above.

[8] = system: middle cerebral artery occlusion infarct; assay: Mouse MCAO model of stroke; type: in vivo
Description: In this animal model, a small suture is inserted into the common carotid artery and threaded directly into the circulatory system of the brain. The suture is placed such that it blocks blood flow though the middle cerebral artery (MCA occlusion), which is the primary source of blood to the forebrain. After a set period of time, here 90 min, the suture is removed and blood flow to the forebrain is restored (reperfusion). The temporary blockage of blood flow to the forebrain results in behavioral symptoms and brain pathology that mimic those seen in human stroke patients. In the brain, within 24 hr post-MCA occlusion an infarct is visible using a stain (TTC) that stains living tissue red and the infarcted area white. The infarct following a 90 min MCAO usually involves both cortical and subcortical brain regions. In this study, mice were treated for 3 days (1/day) prior to MCAO with either vehicle (0.5% methyl cellulose, 0.2% Tween-80/0.9% NaCl, n=12) or the Hh agonist X″ (20 mg/kg, po, n=11). Animals were then subjected to 90 min MCAO followed by reperfusion. Approximately 24 hr after the start of occlusion ([…] of reperfusion) mice were euthanized and the brain sectioned into 2 mm slabs. The brain slices were stained with TTC to show the infarcted area of the brain. The infarct area/total forebrain (% infarct) was analyzed by measured and statistically analyzed. Male mice (7-8 wks of age) were subjected to 90 min MCAO followed by reperfusion. Animals were then treated with either vehicle (n=11) or the Hh agonist X″ (20 mg/kg, po, n=12) at the onset of reperfusion (90 min post-occlusion). Twenty-four hours after the onset of MCAO mice were euthanized, the brain sectioned into 2 mm slabs and slices stained with TTC for infarct size analysis.

COc1ccc(CN(C(=O)c2sc3ccccc3c2Cl)C2CCC(N)CC2)cc1-c1ccc(C#N)cc1 (centres unmarked) [B]
upregulation of hedgehog pathway (β-galactosidase staining) [1]: clearly capable of upregulating the hedgehog pathway in vivo
induction of Gli-1 relative to that obtained with the optimal concentration of Hh protein (Gli-1): approximately 60%
LacZ reporter gene expression in kidney explants [2]: significantly increased reporter gene expression and expansion of the expression domain of the transgene
EC50 [3]: < 10000 nM
induction of 3H-thymidine incorporation ([4]; 5.0 μM, absence of Hh protein): 10.2 fold
stimulation of 3H-thymidine incorporation ([4]; absence of Hh protein treatment): significantly stimulate 3H-thymidine incorporation
X-Gal staining of skin explants (ptc-lacZ skin punches; agonist alone): greater staining than culturing with a low dose of Hh protein alone
X-Gal staining of skin explants (ptc-lacZ skin punches; agonist and a low dose of Hh protein): staining similar to that of a substantially higher dose of Hh protein
induction of Ptc-1 relative to that obtained with the optimal concentration of Hh protein (Ptc-1): approximately 60%
LacZ reporter gene expression in lung explants (ptc-1 (d11) lacZ lungs): significantly increased reporter gene expression and expansion of the expression domain of the transgene

CNC1CCC(N(Cc2ccc(-c3cccnc3)o2)C(=O)c2sc3ccccc3c2Cl)CC1 (centres unmarked) [R]
EC50 [3]: < 1000 nM
activation of Gli-Luc reporter cell line [5]: activation of the reporter cell line

CN[C@H]1CC[C@H](N(Cc2ccc(OC)c(-c3ccc(C#N)cc3)c2)C(=O)c2sc3c(F)ccc(F)c3c2Cl)CC1 [X′′]
attenuation of damage to the nigrostriatal pathway (striatal DA and TH activity) [6]: ~260%
EC50 [3]: < 5 nM
number of proliferating cells in the SG of the dentate gyrus [7]: increased the number of proliferating cells in the SG of the dentate gyrus
number of BrdU labeled cells in the SVZ ([7]; p<0.05): increased the number of BrdU labeled cells in the SVZ
cortical and subcortical lesion size ([8]; post-MCAO treatment 20 mg/kg po at onset of reperfusion): dramatically reduced both cortical and subcortical lesion size
size of the infarct ([8]; post-MCAO treatment 20 mg/kg po at onset of reperfusion, p<0.05): significantly decreased the size of the infarct
cortical infarct size ([8]; pre-MCAO treatment 20 mg/kg po 1/day for 3 days, p=0.052): marked reduction in cortical infarct size
total infarct size ([8]; pre-MCAO treatment 20 mg/kg po 1/day for 3 days, p=0.057): dramatically reduced
